Results published in PMC4180945 (Tetrahedron, 2014).

What was measured:
[1] = molecular target: bovine serum albumin (BSA) (Bos taurus, UniProt P02769); assay: Selectivity binding to arbitrarily selected protein: BSA
[2] = molecular target: T1, GST-SHD SH2 domain fusion protein (Homo sapiens, UniProt Q96IW2); assay: Selectivity binding to arbitrarily selected protein: GST-SHD SH2
T1 sequence (Q96IW2 240-335 limits assumed): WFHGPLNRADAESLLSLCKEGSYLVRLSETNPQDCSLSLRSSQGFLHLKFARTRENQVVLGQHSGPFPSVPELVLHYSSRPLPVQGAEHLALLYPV

[3] = molecular target: maltose-binding protein-XIAP BIR3 domain fusion (MBP-BIR3) (Homo sapiens, UniProt P98170); assay: Selectivity binding to arbitrarily selected protein: MBP-BIR3
Sequence of maltose-binding protein-XIAP BIR3 domain fusion (MBP-BIR3) (P98170 241-356 limits assumed): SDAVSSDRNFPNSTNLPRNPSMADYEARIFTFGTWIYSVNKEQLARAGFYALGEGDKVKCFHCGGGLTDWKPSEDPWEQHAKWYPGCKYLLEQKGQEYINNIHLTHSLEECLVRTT

[4] = molecular target: T2, protein-tyrosine phosphatase 1B (PTP1B) (Homo sapiens, UniProt P18031); assay: Selectivity binding to arbitrarily selected protein: PTP1B
T2 sequence (P18031 1-435): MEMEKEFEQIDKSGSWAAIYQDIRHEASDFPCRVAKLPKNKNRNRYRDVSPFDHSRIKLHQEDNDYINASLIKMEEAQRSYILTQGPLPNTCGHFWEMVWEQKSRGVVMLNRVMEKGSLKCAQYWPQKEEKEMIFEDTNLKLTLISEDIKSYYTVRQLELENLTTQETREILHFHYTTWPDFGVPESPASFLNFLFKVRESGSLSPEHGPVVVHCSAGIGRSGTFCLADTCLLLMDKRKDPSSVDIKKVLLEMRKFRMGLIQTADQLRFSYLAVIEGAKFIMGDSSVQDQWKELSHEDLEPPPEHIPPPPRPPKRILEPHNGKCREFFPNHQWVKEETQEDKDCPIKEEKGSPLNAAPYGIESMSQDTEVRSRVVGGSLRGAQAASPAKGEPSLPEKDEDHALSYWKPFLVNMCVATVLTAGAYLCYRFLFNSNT

[5] = molecular target: GST-FKBP12 fusion protein (Homo sapiens, UniProt P62942); assay: Selectivity binding to arbitrarily selected protein: GST-FKBP12
Sequence of GST-FKBP12 fusion protein (P62942 whole entry, the tested form may be a part): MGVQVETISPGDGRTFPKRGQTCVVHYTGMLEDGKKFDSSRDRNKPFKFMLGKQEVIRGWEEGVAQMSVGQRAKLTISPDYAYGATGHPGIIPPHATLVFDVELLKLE

Sequence of bovine serum albumin (BSA) (P02769 25-607): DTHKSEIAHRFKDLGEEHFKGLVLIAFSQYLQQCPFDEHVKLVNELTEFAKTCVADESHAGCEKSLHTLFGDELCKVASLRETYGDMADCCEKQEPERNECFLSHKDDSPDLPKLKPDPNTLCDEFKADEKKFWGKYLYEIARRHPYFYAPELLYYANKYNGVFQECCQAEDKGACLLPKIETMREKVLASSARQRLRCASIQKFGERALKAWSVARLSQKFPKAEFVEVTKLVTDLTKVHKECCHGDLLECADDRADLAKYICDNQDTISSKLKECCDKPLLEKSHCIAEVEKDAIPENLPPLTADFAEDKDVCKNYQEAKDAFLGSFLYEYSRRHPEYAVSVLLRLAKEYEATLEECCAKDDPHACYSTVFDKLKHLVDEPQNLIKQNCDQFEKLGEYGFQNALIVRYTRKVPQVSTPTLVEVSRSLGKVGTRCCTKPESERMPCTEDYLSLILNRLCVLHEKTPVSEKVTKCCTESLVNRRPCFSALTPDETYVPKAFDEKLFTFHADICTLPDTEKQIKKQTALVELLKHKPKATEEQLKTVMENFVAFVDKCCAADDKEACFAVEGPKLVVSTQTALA

Trp-phe-Asp-Lys-phe-asn-His-Dap [Peptide 38]
Fold higher KD for BSA than that of K-Ras [1]: 47-120 fold
Fold higher KD for GST-SHD SH2 than that of K-Ras [2]: 47-120 fold
Fold higher KD for MBP-BIR3 than that of K-Ras [3]: 47-120 fold
Binding to PTP1B [4]: no binding
Binding to GST-FKBP12 [5]: no binding
